Columns and labels:
[1] = biological target: T1, PDE4B (Homo sapiens, UniProt Q07343); assay: Protein degradation assay, western blot, PDE4B in A549 cells; assay type: cell-based; settings: 24 h treatment, 'as high as about' = upper value for the group, read-out: PDE4B degradation relative to DMSO
T1 construct: endogenous in cells; host or cells: A549
Protocol: Example B2. Protein Degradation Assay
A549 cells were grown in RPMI 1640 media supplemented with 10% fetal bovine serum, streptomycin, and penicillin. The cells were plated in 6-well plates at 300,000 cells/well in the growth media. After overnight incubation, the cells were treated with DMSO (control) or a compound at predetermined concentrations (e.g., 10 nM, 100 nM, 1 μM, 3 μM, or 10 μM) for 24 h at 37° C. under 5% CO2. Whole cell extracts were prepared using an immunoprecipitation (IP) lysis buffer. The cells were washed once in PBS, and the cell pellets were resuspended in the IP lysis buffer and incubated for 15 min on ice. Cells debris was removed by centrifugation and the cleared whole cell lysates were transferred to new tubes for further analysis.
For a western blot analysis, the whole cell protein extracts were separated on 4-12% SDS-polyacrylamide gels, transferred to nitrocellulose, and probed with primary antibodies. Membranes were subsequently washed and probed with IRDYE® secondary antibodies. The signals were detected using an ODYSSEY® Imaging System. The antibodies used in the assay included anti-PDE4B antibody; anti-PDE4D antibodies (top, bottom, and short isoform); β-actin mouse monoclonal antibody; IRDYE® 680RD goat anti-rabbit antibody; and IRDYE® 800CW goat anti-mouse antibody. The compounds provided herein are PDE4 protein degraders.

[2] = system: TNF-α; assay: Cell-based TNF-α inhibition assay (LPS-induced PBMCs, Meso Scale); settings: PBMC, PBMCs pretreated 1 h, LPS 100 ng/mL 18-24 h, percentage of stimulated DMSO control; for inhibition at 0.1 µM: compound concentration 0.1 μM; for inhibition at 1 µM: compound concentration 1 μM
Method in brief: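 Thawed primary PBMCs (200,000 cells/well, RPMI 1640 with 10% FBS) were pretreated with compound for 1 h, then stimulated with 100 ng/mL LPS for 18–24 h. Supernatant TNF-α was measured by Meso Scale, and activity was expressed as percent inhibition relative to the stimulated DMSO control.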

T1 sequence (Q07343 whole entry): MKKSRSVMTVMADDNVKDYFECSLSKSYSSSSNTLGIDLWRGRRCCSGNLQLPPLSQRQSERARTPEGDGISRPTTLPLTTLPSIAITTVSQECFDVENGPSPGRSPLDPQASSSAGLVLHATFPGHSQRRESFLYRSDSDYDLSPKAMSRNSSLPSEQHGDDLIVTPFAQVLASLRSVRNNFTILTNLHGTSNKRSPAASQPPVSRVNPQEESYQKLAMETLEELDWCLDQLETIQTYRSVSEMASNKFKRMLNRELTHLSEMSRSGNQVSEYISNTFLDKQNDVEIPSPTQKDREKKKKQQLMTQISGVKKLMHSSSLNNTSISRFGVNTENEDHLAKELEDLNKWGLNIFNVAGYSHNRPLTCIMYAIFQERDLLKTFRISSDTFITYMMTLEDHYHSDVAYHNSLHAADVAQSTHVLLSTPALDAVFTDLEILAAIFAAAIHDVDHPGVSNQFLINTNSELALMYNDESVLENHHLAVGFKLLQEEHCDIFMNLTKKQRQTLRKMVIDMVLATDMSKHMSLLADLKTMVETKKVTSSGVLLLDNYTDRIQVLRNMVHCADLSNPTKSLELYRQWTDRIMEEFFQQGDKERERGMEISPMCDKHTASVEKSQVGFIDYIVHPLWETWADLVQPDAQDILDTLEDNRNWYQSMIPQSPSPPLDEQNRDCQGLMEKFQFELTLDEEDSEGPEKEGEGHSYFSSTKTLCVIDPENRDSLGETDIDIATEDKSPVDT

| Dmax [1] [%] | Structure (SMILES) | inhibition at 0.1 µM [2] [%] | inhibition at 1 µM [2] [%] |
| --- | --- | --- | --- |
| ≤ 70 | CCOc1cc([C@@H](CS(C)(=O)=O)N2C(=O)c3cccc(NC(=O)CCCCCCCCCCCNc4cccc5c4C(=O)N(C4CCC(=O)NC4=O)C5=O)c3C2=O)ccc1OC (stereo partly drawn) [Compound A6, 12-((2-(2,6-Dioxopiperidin-3-yl)-1,3-dioxoisoindolin-4-yl)amino)-N-(2-((S)-1-(3-ethoxy-4-methoxyphenyl)-2-(methylsulfonyl)ethyl)-1,3-dioxoisoindolin-4-yl)dodecanamide] | – | – |
| ≤ 70 | CCOc1cc([C@@H](CS(C)(=O)=O)N2C(=O)c3cccc(NC(=O)CCCCCCCCNCc4ccc(OCc5scc6c5CN(C5CCC(=O)NC5=O)C6=O)cc4)c3C2=O)ccc1OC (stereo partly drawn) [Compound A12, 9-((4-((5-(2,6-Dioxopiperidin-3-yl)-4-oxo-5,6-dihydro-4H-thieno[3,4-c]pyrrol-1-yl)methoxy)benzyl)amino)-N-(2-((S)-1-(3-ethoxy-4-methoxyphenyl)-2-(methylsulfonyl)ethyl)-1,3-dioxoisoindolin-4-yl)nonanamide] | – | – |
| ≤ 70 | CCOc1cc([C@@H](CS(C)(=O)=O)N2C(=O)c3cc(CCCCCCCCCCCCN4CCC(c5cc(F)cc6c5CN(C5CCC(=O)NC5=O)C6=O)CC4)cc(NC(C)=O)c3C2=O)ccc1OC (stereo partly drawn) [Compound A14, N-(6-(12-(4-(2-(2,6-Dioxopiperidin-3-yl)-6-fluoro-1-oxoisoindolin-4-yl)piperidin-1-yl)dodecyl)-2-((S)-1-(3-ethoxy-4-methoxyphenyl)-2-(methylsulfonyl)ethyl)-1,3-dioxoisoindolin-4-yl)acetamide] | – | – |
| ≤ 70 | CCOc1cc([C@@H](CS(C)(=O)=O)N2C(=O)c3cccc(NC(=O)CCCCCCCCC(=O)N[C@H](C(=O)N4C[C@H](O)C[C@H]4C(=O)NCc4ccc(-c5scnc5C)cc4)C(C)(C)C)c3C2=O)ccc1OC [Compound A60, N^1-(2-((S)-1-(3-Ethoxy-4-methoxyphenyl)-2-(methylsulfonyl)ethyl)-1,3-dioxoisoindolin-4-yl)-N^10—((S)-1-((2S,4R)-4-hydroxy-2-((4-(4-methylthiazol-5-yl)benzyl)-carbamoyl)pyrrolidin-1-yl)-3,3-dimethyl-1-oxobutan-2-yl)decanediamide] | – | – |
| – | CCOc1cc([C@@H](CS(C)(=O)=O)N2C(=O)c3cccc(NC(=O)CCCCCCCCCN4CCN(CC(=O)Nc5cccc(C6CCC(=O)NC6=O)c5)CC4)c3C2=O)ccc1OC (stereo partly drawn) [Compound A88, 10-[4-({[3-(2,6-Dioxopiperidin-3-yl)phenyl]carbamoyl}methyl)piperazin-1-yl]-N-{2-[(1S)-1-(3-ethoxy-4-methoxyphenyl)-2-methanesulfonylethyl]-1,3-dioxo-2,3-dihydro-1H-isoindol-4-yl}decanamide] | ≥ 60 | ≥ 60 |
| – | CCOc1cc([C@@H](CS(C)(=O)=O)N2C(=O)c3cc(CCCCCCCCCCCCNc4cccc(NC5CCC(=O)NC5=O)c4)cc(NC(C)=O)c3C2=O)ccc1OC (stereo partly drawn) [Compound A89, N-{6-[12-({3-[(2,6-Dioxopiperidin-3-yl)amino]phenyl}amino)dodecyl]-2-[(1S)-1-(3-ethoxy-4-methoxyphenyl)-2-methanesulfonylethyl]-1,3-dioxo-2,3-dihydro-1H-isoindol-4-yl}acetamide] | ≥ 60 | ≥ 60 |
| – | CCOc1cc([C@@H](CS(C)(=O)=O)N2C(=O)c3cc(CCCCCCCCCCCCNc4cccc(NC5CCC(=O)NC5=O)c4)cc(N)c3C2=O)ccc1OC (stereo partly drawn) [Compound A90, 4-Amino-6-[12-({3-[(2,6-dioxopiperidin-3-yl)amino]phenyl}amino)dodecyl]-2-[(1S)-1-(3-ethoxy-4-methoxyphenyl)-2-methanesulfonylethyl]-2,3-dihydro-1H-isoindole-1,3-dione] | ≥ 60 | ≥ 60 |
| ≤ 70 | O=C1CCC(N2Cc3c(C#CC4CCN(C(=O)CCCCOc5cc(C(=O)Nc6c(Cl)cncc6Cl)ccc5OC(F)F)CC4)cccc3C2=O)C(=O)N1 (stereo not drawn) [Compound B2, N-(3,5-Dichloropyridin-4-yl)-4-(difluoromethoxy)-3-((5-(4-((2-(2,6-dioxopiperidin-3-yl)-1-oxoisoindolin-4-yl)ethynyl)piperidin-1-yl)-5-oxopentyl)oxy)benzamide] | – | – |
| ≤ 70 | O=C1CCC(N2Cc3cc(C4CCN(CCCCCCCOc5cc(C(=O)Nc6c(Cl)cncc6Cl)ccc5OC(F)F)CC4)c(F)cc3C2=O)C(=O)N1 (stereo not drawn) [Compound B3, N-(3,5-Dichloropyridin-4-yl)-4-(difluoromethoxy)-3-((7-(4-(2-(2,6-dioxopiperidin-3-yl)-6-fluoro-1-oxoisoindolin-5-yl)piperidin-1-yl)heptyl)oxy)benzamide] | – | – |
| – | O=C1CCC(N2Cc3c(cc(F)cc3C3CCN(CCCCCCCCCOc4cc(C(=O)Nc5c(Cl)cncc5Cl)ccc4OC(F)F)CC3)C2=O)C(=O)N1 (stereo not drawn) [Compound B4, N-(3,5-Dichloropyridin-4-yl)-4-(difluoromethoxy)-3-((9-(4-(2-(2,6-dioxo-piperidin-3-yl)-6-fluoro-1-oxoisoindolin-4-yl)piperidin-1-yl)nonyl)oxy)benzamide] | ≥ 60 | – |
| – | O=C1CCC(N2Cc3c(cc(F)cc3C3CCN(CCCCCOc4cc(C(=O)Nc5c(Cl)cncc5Cl)ccc4OC(F)F)CC3)C2=O)C(=O)N1 (stereo not drawn) [Compound B5, N-(3,5-Dichloropyridin-4-yl)-4-(difluoromethoxy)-3-((5-(4-(2-(2,6-dioxo-piperidin-3-yl)-6-fluoro-1-oxoisoindolin-4-yl)piperidin-1-yl)pentyl)oxy)benzamide] | ≥ 60 | – |
| ≤ 70 | O=C1CCC(N2C(=O)c3cccc(NCCCCCCCOc4cc(C(=O)Nc5c(Cl)cncc5Cl)ccc4OC(F)F)c3C2=O)C(=O)N1 (stereo not drawn) [Compound B6, N-(3,5-Dichloropyridin-4-yl)-4-(difluoromethoxy)-3-((7-((2-(2,6-dioxopiperidin-3-yl)-1,3-dioxoisoindolin-4-yl)amino)heptyl)oxy)benzamide] | – | – |
| ≤ 70 | O=C1CCC(N2Cc3c(cc(F)cc3C3CCN(CCCCCCCCCCCCOc4cc(C(=O)Nc5c(Cl)cncc5Cl)ccc4OC(F)F)CC3)C2=O)C(=O)N1 (stereo not drawn) [Compound B7, N-(3,5-Dichloropyridin-4-yl)-4-(difluoromethoxy)-3-((12-(4-(2-(2,6-dioxo-piperidin-3-yl)-6-fluoro-1-oxoisoindolin-4-yl)piperidin-1-yl)dodecyl)oxy)benzamide] | – | – |
| – | O=C1CCC(N2Cc3c(cc(F)cc3C3CCN(CCCCCCCCCOc4ccc(C(=O)Nc5c(Cl)cncc5Cl)cc4OCC4CC4)CC3)C2=O)C(=O)N1 (stereo not drawn) [Compound B12, 3-(Cyclopropylmethoxy)-N-(3,5-dichloropyridin-4-yl)-4-((9-(4-(2-(2,6-dioxopiperidin-3-yl)-6-fluoro-1-oxoisoindolin-4-yl)piperidin-1-yl)nonyl)oxy)benzamide] | 20 to 40 | – |
| – | CC(=O)NC(=O)C(C)N1Cc2c(cc(F)cc2C2CCN(CCCCCCCCCOc3cc(C(=O)Nc4c(Cl)cncc4Cl)ccc3OC(F)F)CC2)C1=O (stereo not drawn) [Compound B13, 3-((9-(4-(2-(1-Acetamido-1-oxopropan-2-yl)-6-fluoro-1-oxoisoindolin-4-yl)piperidin-1-yl)nonyl)oxy)-N-(3,5-dichloropyridin-4-yl)-4-(difluoromethoxy)benzamide] | ≥ 60 | ≥ 60 |
| – | O=C1CCC(N2Cc3c(csc3COc3ccc(CNCCCCCCCOc4cc(C(=O)Nc5c(Cl)cncc5Cl)ccc4OC(F)F)cc3)C2=O)C(=O)N1 (stereo not drawn) [Compound B18, N-(3,5-Dichloropyridin-4-yl)-4-(difluoromethoxy)-3-((7-((4-((5-(2,6-dioxo-piperidin-3-yl)-4-oxo-5,6-dihydro-4H-thieno[3,4-c]pyrrol-1-yl)methoxy)benzyl)amino)heptyl)-oxy)benzamide] | ≥ 60 | ≥ 60 |
| ≤ 70 | Cc1ncsc1-c1ccc(CNC(=O)[C@@H]2C[C@@H](O)CN2C(=O)[C@@H](NC(=O)CCCCCCCCOc2cc(C(=O)Nc3c(Cl)cncc3Cl)ccc2OC(F)F)C(C)(C)C)cc1 [Compound B20, (2S,4R)-1-((S)-2-(9-(5-((3,5-Dichloropyridin-4-yl)carbamoyl)-2-(difluoromethoxy)phenoxy)nonanamido)-3,3-dimethylbutanoyl)-4-hydroxy-N-(4-(4-methylthiazol-5-yl)benzyl)pyrrolidine-2-carboxamide] | – | – |
| – | Cc1ncsc1-c1ccc(CNC(=O)[C@@H]2C[C@@H](O)CN2C(=O)[C@@H](NC(=O)CCCCCCCCOc2cc(C(=O)Nc3c(Cl)cncc3Cl)ccc2OCC2CC2)C(C)(C)C)cc1 [Compound B22, (2S,4R)-1-((S)-2-(9-(2-(Cyclopropylmethoxy)-5-((3,5-dichloropyridin-4-yl)carbamoyl)phenoxy)nonanamido)-3,3-dimethylbutanoyl)-4-hydroxy-N-(4-(4-methylthiazol-5-yl)benzyl)pyrrolidine-2-carboxamide] | < 20 | 20 to 40 |

Source: patent US20240124418A1 (BioTheryX, Inc., priority 2020, published 2024)
